Experimental data reported in patent US12180183B2, “Water-soluble fluorescent probe and nanoparticals with aggregation-induced emission effect for ovarian cancer and preparation method and use thereof” (HUNAN TARGETING DETECTION TECHNOLOGY CO., LTD, priority 2018, dated 2024).

Assays:
[1] = Dynamic light scattering of the self-assembled probe nanoparticles; assay type: physicochemical; details: compound 3 20 μM in phosphate buffer solution pH=7.4, dynamic light scattering
Procedure: (§1) 40 μL of compound 3 (1 mM) in a phosphate buffer solution was taken by using a pipette and placed in an ep-tube. 1960 μL of a phosphate buffer solution (pH=7.4) was added into the ep-tube under an ultrasonic condition so that the final concentration of compound 3 was 20 μM. The mixture was stirred for 30 min under room temperature to generate opalescence. In order to verify nano-aggregation behavior thereof, an average particle size thereof measured by a dynamic light scattering experiment was 600 nm, as shown in FIG. 1.

[2] = Selectivity of the fluorescent nanoprobe for detecting lysophosphatidic acid; details: compound 3 10 μM, excitation 400 nm
Procedure: The prepared fluorescent molecular probe solution was used for evaluating the selectivity of the probe to lysophosphatidic acid. An excitation wavelength of the nanoprobe was 400 nm. The concentration of the compound 3 in the system was 10 μM. Lysophosphatidic acid with a final concentration of 50 μM and L-proline, glycerin, sodium phosphate, magnesium sulfate, sodium acetate, sodium nitrate, sodium fluoride, glucose, urea, and lysophosphatidyl choline (LPC) with a final concentration of 1 mM were respectively added into the system. After fully mixing, the systems were incubated for 1 min at room temperature. Then fluorescence emission spectra thereof were measured and the fluorescence emission intensities at 557 nm were recorded.

[3] = Linear relationship between fluorescence intensity of the probe nanoparticles and lysophosphatidic acid concentration; details: compound 3 20 μM, phosphate buffer pH 7.4, incubated 1 min at room temperature
Procedure: as §1
A series of different volumes of the stock solution of lysophosphatidic acid in the phosphate buffer solution were respectively added to the system prepared in Example 2, so that the final concentrations of lysophosphatidic acid respectively were 0 μM, 0.2 μM, 0.4 μM, 0.8 μM, 1.0 μM, 1.2 μM, 1.4 μM, 1.8 μM, 2.0 μM, 4.0 μM, 8.0 μM, 10.0 μM, 12.0 μM, 14.0 μM, 16.0 μM, 18.0 μM, 20.0 μM, 25.0 μM, 30.0 μM, 33.0 μM. After all of testing solution were prepared, the testing solutions were mixed uniformly with a vortex. After being incubated for 1 min at room temperature, the fluorescence emission intensity thereof at 557 was measured.

average particle size [1]: 600 nm
Structure (SMILES): COc1ccc(-c2nc(-c3cc[n+](CCCCCCCCCCCC[n+]4ccccc4)cc3)n(-c3ccccc3)c2-c2ccc(OC)cc2)cc1 [Compound 3]
fluorescence emission at 557 nm after addition of lysophosphatidic acid ([2]; lysophosphatidic acid 50 μM, 1 min at room temperature): strong yellow fluorescence
fluorescence emission at 557 nm after addition of other substances ([2]; L-proline, glycerin, sodium phosphate, magnesium sulfate, sodium acetate, sodium nitrate, sodium fluoride, glucose, urea, LPC each 1 mM): could not be observed to generate yellow fluorescence
lysophosphatidic acid concentration range with good linear relationship to fluorescence intensity at 557 nm [3]: 0 to 33 µM
